Eight compounds from US20240316043A1, “BROMODOMAIN INHIBITORS FOR CANCER THERAPY” (University of Tennessee Research Foundation, priority 2023, published 2024) can be followed below.

One assay relates to MT330 cells. In words: γH2Ax immunostaining after bleomycin. Format: cell-based. The settings on record: bleomycin alone (0.5 and 2 μM), 1 hr, FIG. 8. Here is the method:
After 1 hr of bleomycin treatment cell death, cells were fixed and immunostained for γH2Ax. Analysis of immunostaining was performed on at least 1,000 cells on the Lionheart FX imaging system.
Bleomycin is a chemotherapeutic drug that is used to treat various cancers. […] Thus, the ability of bleomycin to induce DNA damage as evidence by immunostaining of MT330 cells and LN229 with γH2Ax was tested. Quantification of cell staining was determined on the Lionheart FX imaging station.

The test system of assay [1] is MT330 GBM cells. Nature of the assay: Cell death ELISA in MT330 GBM cells. Format: cell-based.
For assay [2], the system named is intracranial GBM xenografts (MT330 cells). Nature of the assay: Orthotopic GBM model, MT330 cells injected into brains of NSG mice. Format: in vivo. How it is done: MT330 cells (10^6) were injected into the brains of NSG female mice. After tumors were identified by BLI (˜10 days post-injection), mice were IP injected with TMZ (60 mg/Kg body weight) or IV-129 (10 mg/Kg) alone or in combination 3 times per week (5 mice per group) for 2 weeks. […] FIG. 5C Kaplan-Meier analysis of the survival data (5 mice/group) of the brain tumor-bearing mice was performed.
MT330 cells […] were injected into the brains of NSG female mice. After tumors were identified by BLI (˜10 days post-injection), mice were IP injected with TMZ (10 mg/Kg body weight), IV-255 or IV-275 (20 mg/Kg) alone or in combination 3 times per week (5 mice/group).
Luciferase-expressing MT330 cells were injected into the brains of immunocompromised NSG mice. Once tumors were identified by bioluminescence imaging (BLI) at ˜10 days after tumor cell injection, mice were subjected to intraperitoneal injection of TMZ or YH-IV-129 alone, or in combination. At 20 days after initiation of treatment, live animal imaging was performed on an IVIS Lumina instrument. […] The mean survival of control mice was 27 days after cell injection (FIG. 5C).
Luciferase-expressing MT330 cells were injected into the brains of immunocompromised NSG mice. Once tumors were identified by bioluminescence imaging (BLI) at ˜10 days after tumor cell injection, mice were subjected to intraperitoneal injection of TMZ or YH-IV-255 or YH-IV-275 alone, or in combination. […] This is compelling preliminary evidence that these two new compounds have potent anticancer activity in intracranial GBM xenografts when combined with standard-of-care TMZ chemotherapy and that these drugs cross the blood-brain barrier.

Assay [3] has as its system MT330 GBM cells. In words: Cell death ELISA in MT330 GBM cells. Format: cell-based. As to conditions: for enhancement of TMZ-induced cell death: 10 mM inhibitor in combination with 200 mM of TMZ, 72 hrs, FIG. 1. How it is done:
Control cells were treated with vehicle (DMSO). Cell death was determined at 72 hr after treatment by a cell death ELISA that quantifies histone-complexed DNA fragments. […]
Parental and BRG1 knockout MT330 cells were treated with bleomycin (0.01 μM) and bromodomain inhibitors […]. After 72 hr, cell death was determined by cell death ELISA.
The biological activity of bromodomain inhibitors was assessed for the ability to enhance TMZ-induced cell death. In brief, MT330 cells were treated with […] of bromodomain inhibitors alone, or in combination with […] of TMZ for 72 hrs, and GBM cell death was determined by a commercial ELISA.

Another assay concerns the target T1, BRG1 bromodomain (Homo sapiens, UniProt P51532).
T1 construct: expressed in transfected cells; host or cells: MT330 glioblastoma cells
In words: Cellular thermal shift assay (CETSA), BRG1 bromodomain construct in MT330 cells. As to conditions: for thermostability of the BRG1 BRD: 30 μM, heating 44.5° C. to 55.6° C. for 5 min, immunoblot. On the set-up: binding to the BRG1 BRD: dose or concentration left out as unconfirmed. Format: binding. How it is done: After heating over a temperature range from 44.5° C. to 55.6° C. for 5 min, the cells were lysed, placed on ice at 4° C. and then immunoblotted for BRG1 or actin.
(§1) For the CETSA, MT330 cells expressing the BRM (FIG. 6B), or BRG1 (FIG. 6C) the BRD construct were treated with bromodomain inhibitors […] and immunoblotted as indicated.
(§2) After heating over a temperature range from 44.5° C. to 55.6° C. for 5 min, MT330 cells were lysed and then immunoblotted for BRG1 or BRM.
For orientation: Immunoblotting shows a protein as a band on a membrane.

The next assay concerns the target T2, BRM bromodomain (Homo sapiens, UniProt P51531).
T2 construct: expressed in transfected cells; host or cells: MT330 glioblastoma cells
In words: Cellular thermal shift assay (CETSA), BRM bromodomain construct in MT330 cells. Format: binding. On the set-up: binding to the BRM BRD: dose or concentration left out as unconfirmed. The settings on record: for thermostability of the BRM BRD: heating 44.5° C. to 55.6° C. for 5 min, immunoblot. Here is the method:
as §1, §2

A further assay concerns BRM knockout MT330 cells. In words: Cell death ELISA in BRM knockout MT330 cells. Format: cell-based. The settings on record: TMZ (500 μM) and bromodomain inhibitors (10 μM), 72 hr, FIG. 7. How it is done:
BRG1 and BRM knockout MT330 cells were treated with TMZ (500 μM) and bromodomain inhibitors (10 μM). After 72 hr, cell death was determined by a cell death ELISA.
To further characterize the specificity of YH-IV-255 for the BRG1 bromodomain, GBM cell lines were generated with either BRG1 or BRM knocked out by CRISPR/Cas9 gene editing.^14 These cells were isolated by puromycin selection and the knockout of the either subunit was validated by immunoblotting.
On the technique in general: An ELISA detects its analyte on a solid surface through an enzyme-linked reagent.

The next assay deals with LN229 GBM cells. In words: γH2Ax immunostaining after TMZ. Format: cell-based. The arrangement: dose or concentration left out as unconfirmed. As to conditions: 24 hrs, FIG. 11. How it is done: After treatment for 24 hrs, cells were fixed and immunostained for gH2Ax. Analysis of immunostaining was performed on a laser confocal microscope.
As TMZ is DNA damaging agent, we tested the ability of various bromodomain inhibitors to enhance TMZ-induced DNA damage as evidence by immunostaining of GBM cells with γH2Ax and examination of the staining on a confocal microscope. γH2AX is the phosphorylated version of the histone variant H2Ax and is a highly specific and sensitive marker for monitoring DNA damage initiation and resolution. […] Similar results were obtained with MT330 GBM cells.

In the next assay the test system is T98G GBM cells. In words: IncuCyte live cell imaging proliferation assay. As to conditions: TMZ (500 μM) plus bromodomain inhibitors (20 μM), FIG. 2. Format: cell-based. How it is done:
T98G GBM cells were treated with TMZ (500 μM), the bromodomain inhibitors (20 μM), and cell proliferation was determined by Incucyte live cell assays using cellular confluence method. The data was normalized to the calculated cell confluence at day 0. Control cells were treated with vehicle (DMSO).
To further characterize the biological activity of selected bromodomain inhibitors, YH-IV-129, YH-IV-181 and YH-IV-191, IncuCyte live cell imaging proliferation assays were performed with the highly TMZ-resistant T98G GBM cell line.

The mark [4] stands for this setting: vehicle control band disappearing at 49.8° C., FIG. 3.

“Also recorded” adds a separate entry of the source.

T2 sequence (P51531 1378-1506 limits assumed): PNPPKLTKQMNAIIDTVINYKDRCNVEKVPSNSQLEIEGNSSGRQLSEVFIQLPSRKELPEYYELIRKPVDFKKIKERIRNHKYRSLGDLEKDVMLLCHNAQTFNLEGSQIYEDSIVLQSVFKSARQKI
T1 sequence (P51532 1453-1564 limits assumed): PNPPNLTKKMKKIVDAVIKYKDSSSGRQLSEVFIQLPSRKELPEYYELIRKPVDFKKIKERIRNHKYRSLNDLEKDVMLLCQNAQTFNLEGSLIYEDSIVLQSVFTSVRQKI

bleomycin [reference compound]: the “γH2Ax staining, bleomycin alone” value with MT330 cells is given as “dose dependent increase of γH2Ax staining”. For the same compound, the “cell death, bleomycin alone” value in the assay with MT330 GBM cells [1] (low dose of bleomycin (0.01 µM), 72 hr, FIG. 9) is reported as “induced low levels of cell death in MT330 cells”.

Regarding `Cn1nnc2c(C(N)=O)ncn2c1=O` [TMZ, temozolomide, reference compound], the “mean survival, either agent alone” value in [2] (TMZ (60 mg/Kg) or IV-129 (10 mg/Kg) alone IP, control mice 27 days, FIG. 5C) was determined as 35 days.

With `COc1ccc(N2C[C@H]3C[C@@H]2CN3C(=O)Oc2ccccc2)cc1` [YH-IV-235, (1R,4R)-phenyl 5-(4-methoxyphenyl)-2,5-diazabicyclo[2.2.1]heptane-2-carboxylate], the “enhancement of TMZ-induced cell death” value in the assay on MT330 GBM cells [3] is “better efficacy than PFI-3”.

Consider `COc1ccc(N2C[C@H]3C[C@@H]2CN3C(=O)Oc2ccc(F)c(F)c2)cc1` [YH-IV-275, (1R,4R)-3,4-difluorophenyl 5-(4-methoxyphenyl)-2,5-diazabicyclo [2.2.1]heptane-2-carboxylate], for which the “enhancement of TMZ-induced cell death” value in the assay with MT330 GBM cells [3] is given as “better efficacy than PFI-3; also recorded: somewhat more bioactive than YH-IV-129; also recorded: markedly enhanced TMZ sensitivity of GBM cells in vitro as compared to PFI-3”; in the assay with BRM knockout MT330 cells it was “very similar activity in enhancing the cell death inducing activity in BRM knockout GBM cells”. Further, the “enhancement of bleomycin-induced cell death” value in the assay on MT330 GBM cells [3] (bleomycin (0.01 μM) and bromodomain inhibitors (10 μM), 72 hr, FIG. 9) is given as “sensitized GBM cells to bleomycin-induced cell death”. In the assay with MT330 GBM cells [3] (bromodomain inhibitors (10 μM) alone, 72 hr, FIG. 9), the “cell death, inhibitor alone” value is “none of the bromodomain inhibitors (YH-IV-129, YH-IV-255 and YH-IV-275) alone had any death inducing activity”. Besides, the “binding to the BRG1 BRD” value at BRG1 bromodomain (CETSA, FIG. 6C) is reported as “bind equivalently to the BRG1 BRD”. For the same compound, the “selectivity BRG1 versus BRM bromodomain” value at BRG1 bromodomain (conclusion from CETSA and knockout cells) is “inhibitor of both BRG1 and BRM domains”. In addition, the “binding to the BRM BRD” value at BRM bromodomain (CETSA, FIG. 6B) was “binds well to the BRM BRD”. Also, the “bioluminescent signal in the brain” value in assay [2] (combination with TMZ (10 mg/Kg), IV-255 or IV-275 (20 mg/Kg) IP 3 times per week, 3-4 weeks after treatment, versus either agent alone, FIG. 10) is “decreased the bioluminescent signal in the brain”. Also, the “γH2Ax staining, inhibitor with TMZ” value in the assay with LN229 GBM cells is “marked increase in γH2Ax staining”. Further, in the assay on MT330 GBM cells [1] (TMZ (500 μM) and bromodomain inhibitors (10 μM), 24 hr, FIG. 6A), the “TMZ sensitivity (TMZ-induced cell death)” value was “similarly increase the TMZ sensitivity of GBM cells”.

As for `COc1ccc(N2C[C@H]3C[C@@H]2CN3C(=O)Nc2ccc(F)cc2)cc1` [YH-IV-211, (1R,4R)-N-(4-fluorophenyl)-5-(4-methoxyphenyl)-2,5-diazabicyclo[2.2.1]heptane-2-carboxamide], the “enhancement of TMZ-induced cell death” value with MT330 GBM cells [3] is reported as “better efficacy than PFI-3”.

On to `COc1ccc(N2C[C@H]3C[C@@H]2CN3C(=O)NC(C)(C)C)cc1` [YH-IV-185, (1R,4R)-N-(tert-butyl)-5-(4-methoxyphenyl)-2,5-diazabicyclo[2.2.1]heptane-2-carboxamide], for which the “thermostability of the BRG1 BRD” value at BRG1 bromodomain (FIG. 3) is given as “only moderately increased the thermostability”. Besides, the “thermostability of the BRM BRD” value on BRM bromodomain (FIG. 3) was “only moderately increased the thermostability”.

Take `COc1ccc(N2C[C@H]3C[C@@H]2CN3C(=O)Nc2ccccc2)cc1` [YH-IV-181, (1R,4R)-5-(4-methoxyphenyl)-N-phenyl-2,5-diazabicyclo[2.2.1]heptane-2-carboxamide]: in the assay with T98G GBM cells, the “sensitization to the antiproliferative action of TMZ” value is listed as “potently sensitized T98G GBM cells to the antiproliferative action of TMZ”. Further, at BRG1 bromodomain (FIG. 3), the “thermostability of the BRG1 BRD” value was “significantly increased the thermostability”. Besides, on BRG1 bromodomain (setting [4]), the “temperature at which the BRG1 BRD protein band is undetectable” value was 54.20 °C. Also, the “thermostability of the BRM BRD” value at BRM bromodomain (FIG. 3) is on record as “significantly increased the thermostability”. In addition, at BRM bromodomain (setting [4]), the “temperature at which the BRM BRD protein band is undetectable” value was found to be 54.20 °C.

`COc1ccc(N2CCN(C(=O)OC(C)(C)C)CC2)cc1` [YH-IV-189, tert-butyl 4-(4-methoxyphenyl)piperazine-1-carboxylate]: at BRG1 bromodomain (FIG. 3), the “thermostability of the BRG1 BRD” value is on record as “only moderately increased the thermostability”. Also, at BRM bromodomain (FIG. 3), the “thermostability of the BRM BRD” value was “only moderately increased the thermostability”.
